Source: publication PMC6562844, “A Basic Study of Photodynamic Therapy with Glucose-Conjugated Chlorin e6 Using Mammary Carcinoma Xenografts” (Cancers, 2019)
≈ marks a conversion by molar mass, not a printed value. Where two headings read alike, the source gives them in different places.

Columns and labels:
[1] = test system: SNP cells; assay: Photodynamic cytotoxicity in SNP cells (Cell Counting Kit-8); type: cell-based, canine; details: for Cell viability compared with 0 J/cm^2 of light: p < 0.01; for IC50: Canis lupus familiaris, light or radiation study, 24 h, 24 h incubation, 650-nm laser 10 mW/cm^2, viability 24 h after PDT, read-out: IC50 against SNP cells
Method: We seeded 1 × 10^4 SNP cells into each well of 96-well plates (Corning Inc., New York, NY, USA) followed by overnight incubation. Cells were then incubated with various concentrations of G-Ce6 for 24 h at 37 °C. After washing with fresh media, the cells were irradiated with 650-nm light emitted by a semiconductor laser (Osada Electric Co., Ltd., Tokyo, Japan), using an optical fiber with a micro-lens delivery attachment (Pioneer Optics, Inc., Windsor Lock, CT, USA). PDT was performed at 10 mW/cm^2 in cells exposed to six concentrations of NPe6 and G-Ce6 (0, 0.064, 0.32, 1.6, 8.0, or 40.0 μg/mL) using four light doses (0, 1, 5, or 15 J/cm^2). The cells were then incubated for 24 h in the dark prior to examining cell viability using the Cell Counting Kit-8 (Dojindo, Kumamoto, Japan), according to the manufacturer’s instructions.

[2] = test system: SNP cells; assay: Kinetics experiment to assess apoptosis (IncuCyte Annexin V live-cell analysis); type: cell-based, canine; details: 5 J/cm^2
Method: SNP cells were seeded at a density of (1–2) × 10^4 cells/well in 96-well plates and incubated for 24 h. The cells were then incubated with various concentrations of G-Ce6 (0, 0.064, 0.32, 1.6, or 8.0 μg/mL) for 24 h at 37 °C. After washing with fresh media, the cells were irradiated with 650-nm laser light (10 mW/cm^2, 5 J/cm^2) emitted by a semiconductor laser, using an optical fiber with a microlens delivery attachment. The cells were then stained with IncuCyte® Annexin V (Essen BioScience Inc., Ann Arbor, MI, USA) immediately following PDT, and incubated in a 5% CO2 atmosphere at 37 °C for 24 h. Images were automatically captured every 1 h for 24 h in phase-contrast and fluorescence modes using the IncuCyte® S3 system; phase contrast and green-phase images were obtained from the system. The total green object integrated intensity (green calibrated unit (GCU) × μm²/image) in an image was determined by object counting with IncuCyte® S3 Software according to the manufacturer’s protocol. In the present study, object counting is defined as the total sum of the intensity of Annexin V Green fluorescence in the image.

## CCC1=C(C)c2cc3[nH]c(cc4nc(c(CC(=O)OC)c5[nH]c(cc1n2)c(C)c5C(=O)OC)[C@@H](CCC(=O)OC)[C@@H]4C)c(C)c3C(C)OCCCS[C@@H]1O[C@H](CO)[C@@H](O)[C@H](O)[C@H]1O (stereo partly drawn) [G-Ce6, Methyl (7S,8S)-18-ethyl-5-(2-methoxy-2-oxoethyl)-7-(3-methoxy-3-oxopropyl)-2,8,12,17-tetramethyl-13-(1-(3-(((2S,3R,4S,5S,6R)-3,4,5-trihydroxy-6-(hydroxymethyl)tetrahydro-2H-pyran-2-yl)thio)propoxy)ethyl)-7H,8H-porphyrin-3-carboxylate]
[1]; 1.6 μg/mL, 15 J/cm^2
  Cell viability compared with 0 J/cm^2 of light: significantly lower
[1]; 8 μg/mL, 5 J/cm^2 and 15 J/cm^2
  Cell viability compared with 0 J/cm^2 of light: significantly lower
[1]; 40 μg/mL, 1, 5, and 15 J/cm^2
  Cell viability compared with 0 J/cm^2 of light: significantly lower
[1]; <40 μg/mL G-Ce6, no laser irradiation
  Cell death in the absence of laser irradiation: not observed
[1]; light dose 1 J/cm^2
  IC50: 33.4 µg/mL (≈ 37.4 µM)
[1]; light dose 5 J/cm^2
  IC50: 10.4 µg/mL (≈ 11.6 µM)
[1]; light dose 15 J/cm^2
  IC50: 1.7 µg/mL (≈ 1.9 µM)
[2]; 0.32 μg/mL
  Time after PDT at which GCU began to increase: 1 to 3 h
  Time after PDT at which GCU reached a maximum: 10 h
[2]; 8 μg/mL
  Time after PDT at which apoptosis (GCU) reached a plateau: approximately 4 h
[2]; <0.064 μg/mL
  Total green object integrated intensity (GCU × μm²/image) after PDT: did not increase
